# In patent US20250222116A1, “PARP-1 DEGRADATION AGENT AND USE THEREOF” (XIZANG HAISCO PHARMACEUTICAL CO., LTD., priority 2021, published 2025):
# Where two headings read alike, the source gives them in different places.
# Tested on: breast tumor cells MDA-MB-436
# Assay: MDA-MB-436 cell activity test (CellTiter-Glo, 7 days)
# Type: cell-based, human
# Conditions: for IC50: 7 days incubation, read-out: IC50 (nM), MDA-MB-436 cell inhibitory activity; for inhibition at 10 µM: MDA-MB-436, MDA-MB-436 cells, read-out: Max inh. % 10 μM
# Procedure: Breast tumor cells MDA-MB-436 were purchased from ATCC, the culture medium was Leibovitz's L-15+10% FBS, and the cells were cultured in a CO2-free incubator at 37° C. On day 1, the cells in the exponential growth phase were collected, and the cell suspension was adjusted to 4000 cells/135 μL with the culture medium. 135 μL of the cell suspension was added to each well of a 96-well cell culture plate and incubated overnight. On day 2, compounds at different concentrations were added, and the plate was placed in the incubator and incubated for 7 days. After the culture was completed, according to operation instructions for a CellTiter-Glo kit (Promega, G7573), 75 μL of CTG solution, which was already pre-melted and equilibrated to room temperature, was added to each well, and the mixture was uniformly mixed for 2 minutes using a microplate shaker. The plate was placed at room temperature for 10 minutes, and then […] signal values were determined using an Envision2104 plate reader (PerkinElmer). The inhibition rate was calculated using formula (1), where RLUcompound was the readout of the drug treated group, RLUcontrol was the average value of the solvent control group, and RLUblank was the average value of the cell-free well. The IC50 value was calculated using GraphPad Prism software.
# [1] = Homo sapiens, MDA-MB-436, 168 h, MDA-MB-436 cells
Structure (SMILES),IC50 [1] [nM],IC50 (MDA-MB-436 cells) [nM],"inhibition at 10 µM (Homo sapiens, 10 μM) [%]","Max inh. % 10 μM (MDA-MB-436 cells, 10 μM) [%]"
"CCc1cc2ncc(CN3CC=C(c4ccc(C(=O)N[C@H]5CCN(c6ccc7c(c6)C(=O)N(C6CCC(=O)NC6=O)C7=O)C5)nc4)CC3)cc2[nH]c1=O (stereo partly drawn) [Compound 53, N-((3S)-1-(2-(2,6-dioxopiperidin-3-yl)-1,3-dioxoisoindolin-5-yl)pyrrolidin-3-yl)-1′-((7-ethyl-6-oxo-5,6-dihydro-1,5-naphthyridin-3-yl)methyl)-1′,2′,3′,6′-tetrahydro-[3,4′-bipyridine]-6-carboxamide]",58,–,98,–
"CCc1cc2ncc(CN3CCN(c4ccc(C(=O)NC5CC(Oc6ccc7c(c6)C(=O)N(C6CCC(=O)NC6=O)C7=O)C5)nc4)CC3)cc2[nH]c1=O (centres unmarked) [Compound 60, N-((1s,3s)-3-((2-(2,6-dioxopiperidin-3-yl)-1,3-dioxoisoindolin-5-yl)oxy)cyclobutyl)-5-(4-((7-ethyl-6-oxo-5,6-dihydro-1,5-naphthyridin-3-yl)methyl)piperazin-1-yl)picolinamide]",33,–,82,–
"CCc1cc2ncc(CN3CCN(c4ccc(C(=O)NC5CCN(c6cccc(N7CCC(=O)NC7=O)c6)CC5)nc4)CC3)cc2[nH]c1=O [Compound 62, N-(1-(3-(2,4-dioxotetrahydropyrimidin-1(2H)-yl)phenyl)piperidin-4-yl)-5-(4-((7-ethyl-6-oxo-5,6-dihydro-1,5-naphthyridin-3-yl)methyl)piperazin-1-yl)picolinamide]",17.9,–,82.9,–
"CCc1cc2ncc(CN3CC=C(c4ccc(C(=O)NC5CCN(c6cccc(N7CCC(=O)NC7=O)c6)CC5)nc4)CC3)cc2[nH]c1=O [Compound 63, N-(1-(3-(2,4-dioxotetrahydropyrimidin-1(2H)-yl)phenyl)piperidin-4-yl)-1′-((7-ethyl-6-oxo-5,6-dihydro-1,5-naphthyridin-3-yl)methyl)-1′,2′,3′,6′-tetrahydro-[3,4′-bipyridine]-6-carboxamide]",16.1,–,83.1,–
CCc1cc2ncc(CN3CCN(c4ccc(C(=O)NC5CCN(c6cccc(NC7CCC(=O)NC7=O)c6)CC5)nc4)CC3)cc2[nH]c1=O (centres unmarked) [Compound 64],27.9,–,84.9,–
"CCc1cc2ncc(CN3CCN(c4ccc(NC(=O)c5cnn(C6CCN(c7ccc8c(c7)C(=O)N(C7CCC(=O)NC7=O)C8=O)CC6)c5)nc4)CC3)cc2[nH]c1=O (centres unmarked) [Compound 68, 1-(1-(2-(2,6-dioxopiperidin-3-yl)-1,3-dioxoisoindolin-5-yl)piperidin-4-yl)-N-(5-(4-((7-ethyl-6-oxo-5,6-dihydro-1,5-naphthyridin-3-yl)methyl)piperazin-1-yl)pyridin-2-yl)-1H-pyrazole-4-carboxamide]",12.3,–,88.6,–

# The next lines start with results.
IC50 [1] [nM],IC50 (MDA-MB-436 cells) [nM],Structure (SMILES),"inhibition at 10 µM (Homo sapiens, 10 μM) [%]","Max inh. % 10 μM (MDA-MB-436 cells, 10 μM) [%]"
101,–,"CCc1cc2ncc(CN3CC=C(c4ccc(C(=O)NC5CCN(c6ccc7c(c6)C(=O)N(C6CCC(=O)NC6=O)C7=O)CC5)nc4)CC3)cc2[nH]c1=O (centres unmarked) [Compound 49, N-(1-(2-(2,6-dioxopiperidin-3-yl)-1,3-dioxoisoindolin-5-yl)piperidin-4-yl)-1′-((7-ethyl-6-oxo-5,6-dihydro-1,5-naphthyridin-3-yl)methyl)-1′,2′,3′,6′-tetrahydro-[3,4′-bipyridine]-6-carboxamide]",93.8,–
19,–,"CCc1cc2ncc(CN3CCN(c4ccc(C(=O)N[C@H]5CCN(c6cc7c(cc6F)C(=O)N(C6CCC(=O)NC6=O)C7=O)C5)nc4)CC3)cc2[nH]c1=O (stereo partly drawn) [Compound 51, N-((3S)-1-(2-(2,6-dioxopiperidin-3-yl)-6-fluoro-1,3-dioxoisoindolin-5-yl)pyrrolidin-3-yl)-5-(4-((7-ethyl-6-oxo-5,6-dihydro-1,5-naphthyridin-3-yl)methyl)piperazin-1-yl)picolinamide]",97.5,–
38,–,"CCc1cc2ncc(CN3CCN(c4ccc(C(=O)N[C@H]5C[C@H](Oc6ccc7c(c6)C(=O)N(C6CCC(=O)NC6=O)C7=O)C5)nc4)CC3)cc2[nH]c1=O (some centres unmarked) [Compound 59, N-((1r,3r)-3-((2-(2,6-dioxopiperidin-3-yl)-1,3-dioxoisoindolin-5-yl)oxy)cyclobutyl)-5-(4-((7-ethyl-6-oxo-5,6-dihydro-1,5-naphthyridin-3-yl)methyl)piperazin-1-yl)picolinamide]",81.7,–
39.5,–,"CCc1cc2ncc(CN3CC=C(c4ccc(C(=O)NC5CCN(c6cccc(NC7CCC(=O)NC7=O)c6)CC5)nc4)CC3)cc2[nH]c1=O (centres unmarked) [Compound 65, N-(1-(3-((2,6-dioxopiperidin-3-yl)amino)phenyl)piperidin-4-yl)-1′-((7-ethyl-6-oxo-5,6-dihydro-1,5-naphthyridin-3-yl)methyl)-1′,2′,3′,6′-tetrahydro-[3,4′-bipyridine]-6-carboxamide]",76.8,–
–,100,"CCc1cc2ncc(CN3CCN(c4ccc(C(=O)NC5CCC(Oc6ccc7c(c6)C(=O)N(C6CCC(=O)NC6=O)C7=O)CC5)nc4)CC3)cc2[nH]c1=O (centres unmarked) [Compound 67, N-((1s,4s)-4-((2-(2,6-dioxopiperidin-3-yl)-1,3-dioxoisoindolin-5-yl)oxy)cyclohexyl)-5-(4-((7-ethyl-6-oxo-5,6-dihydro-1,5-naphthyridin-3-yl)methyl)piperazin-1-yl)picolinamide]",–,96.2
15.3,–,"CCc1cc2ncc(CN3CCN(c4ccc(C(=O)NC5CCN(c6ncc(N7CCC(=O)NC7=O)cn6)CC5)nc4)CC3)cc2[nH]c1=O [Compound 69, N-(1-(5-(2,4-dioxotetrahydropyrimidin-1(2H)-yl)pyrimidin-2-yl)piperidin-4-yl)-5-(4-((7-ethyl-6-oxo-5,6-dihydro-1,5-naphthyridin-3-yl)methyl)piperazin-1-yl)picolinamide]",88.4,–
73.4,–,"Cc1nc2ccc(CN3CCN(c4ccc(C(=O)NC5CCN(c6cccc(N7CCC(=O)NC7=O)c6)CC5)nc4F)CC3)c(F)c2[nH]c1=O [Compound 71, N-(1-(3-(2,4-dioxotetrahydropyrimidin-1(2H)-yl)phenyl)piperidin-4-yl)-6-fluoro-5-(4-((5-fluoro-2-methyl-3-oxo-3,4-dihydroquinoxalin-6-yl)methyl)piperazin-1-yl)picolinamide]",99,–
